Reference: publication PMC8522701 (Journal of nuclear medicine : official publication, Society …, 2012)

Assays:
[1] = system: VLA-4–positive B16F10 mouse melanoma cells; assay: Cellular uptake assay, VLA-4-positive B16F10 cells; type: cell-based; conditions: 60 min, 37°C, P < 0.05
[2] = system: VLA-4–negative MDA-MB-231/fluc human breast cancer tumor cells; assay: Cellular uptake assay, VLA-4-negative MDA-MB-231/fluc cells; type: cell-based; conditions: coincubation with 1 μM nonradioactive ligand, 60 min, 37°C; P = 0.3
[3] = system: Raji lymphoma mouse model; conditions: in vivo; cited from earlier work

Substance: ^64Cu-labeled 11-bis(carboxymethyl)-1,4,8,11-tetraazabicyclo[6.6.2] hexadecane (CB-TE2A)-LLP2A [^64Cu-CB-TE2A-LLP2A]
- cellular uptake (sum of internalized and cell surface-bound fractions) in B16F10 cells relative to MDA-MB-231 cells ([1]; 1 nM tracer, cpm/mg protein): higher
- blocking of cellular uptake with cold LLP2A in B16F10 cells ([1]; coincubation with 1 μM nonradioactive ligand): blocking with cold LLP2A was observed
- blocking of cellular uptake with cold LLP2A in MDA-MB-231/fluc cells [2]: no significant blocking
- tracer uptake in tissues of Raji lymphoma mouse model [3]: uptake in the tumor, spleen, and bone marrow
